What is called speed of sound is the propagation velocity of pressure waves in the medium.

The values below come from a compilation of properties of binary mixtures (doi:10.1007/s10953-006-9073-6).

A short description of the series: xn = mol fraction of the nth substance listed. Particulars: 298.15 K, 101 kPa.

Take `CCCC[n+]1ccn(C)c1.[Cl-]` + O: the speed of sound reads like this: (x2 = 0.2213) 1838.3 m/s; (x2 = 0.308) 1828.2 m/s; (x2 = 0.3852) 1831.3 m/s; (x2 = 0.5017) 1845 m/s; (x2 = 0.5976) 1859.6 m/s; (x2 = 0.6987) 1872.8 m/s. Also, the speed of sound (x2 = 0.8012) is 1881.5 m/s, the speed of sound (x2 = 0.8967) is given as 1853.7 m/s and the speed of sound (x2 = 0.9504) was found to be 1754.7 m/s.
As for `CCCC[n+]1ccn(C)c1.[Cl-]` + CCO, the speed of sound (x2 = 0.1874) is listed as 1744.8 m/s; the speed of sound (x2 = 0.4815) is 1598.2 m/s; the speed of sound (x2 = 0.6209) was 1515 m/s; the speed of sound (x2 = 0.7217) was 1443 m/s; the speed of sound (x2 = 0.8982) is given as 1279.1 m/s; the speed of sound (x2 = 0.9373) turned out to be 1232.5 m/s.
